# Columns and labels:
# [1] = molecular target: T1, human ACCS2 (ACSS2, acetyl CoA synthetase) (Homo sapiens, UniProt Q9NR19); assay: biochemical
# [2] = molecular target: T2, S. cerevisiae Acs1 (acetyl CoA synthetase) (Saccharomyces cerevisiae, UniProt Q01574); assay: hydroxylamine-coupled; type: biochemical
# T2 sequence (Q01574 1-713): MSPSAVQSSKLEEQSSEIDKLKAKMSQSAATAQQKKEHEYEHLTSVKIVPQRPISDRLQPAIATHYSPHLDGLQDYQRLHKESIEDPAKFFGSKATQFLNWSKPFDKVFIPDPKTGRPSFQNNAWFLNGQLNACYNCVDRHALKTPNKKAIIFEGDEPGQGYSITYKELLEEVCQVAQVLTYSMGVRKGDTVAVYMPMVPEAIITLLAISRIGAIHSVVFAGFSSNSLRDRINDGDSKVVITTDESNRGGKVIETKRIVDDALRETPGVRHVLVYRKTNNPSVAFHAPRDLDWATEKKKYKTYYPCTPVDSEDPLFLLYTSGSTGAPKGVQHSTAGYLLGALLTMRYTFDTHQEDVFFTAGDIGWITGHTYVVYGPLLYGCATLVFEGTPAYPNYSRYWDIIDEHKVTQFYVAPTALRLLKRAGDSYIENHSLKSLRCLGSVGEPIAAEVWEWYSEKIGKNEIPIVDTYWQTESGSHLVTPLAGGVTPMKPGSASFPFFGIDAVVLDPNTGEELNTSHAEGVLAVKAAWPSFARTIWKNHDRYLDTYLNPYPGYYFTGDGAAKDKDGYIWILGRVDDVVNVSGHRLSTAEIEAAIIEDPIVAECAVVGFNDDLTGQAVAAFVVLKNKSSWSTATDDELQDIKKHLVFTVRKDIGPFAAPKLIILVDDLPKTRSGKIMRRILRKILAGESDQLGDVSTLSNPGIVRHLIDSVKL
# [3] = molecular target: T2, S. cerevisiae Acs1 (acetyl CoA synthetase); assay: Km determination in hydroxamic acid enzyme assay; type: biochemical
# [4] = molecular target: T1, human ACCS2 (ACSS2, acetyl CoA synthetase)
# T1 sequence (Q9NR19 whole entry): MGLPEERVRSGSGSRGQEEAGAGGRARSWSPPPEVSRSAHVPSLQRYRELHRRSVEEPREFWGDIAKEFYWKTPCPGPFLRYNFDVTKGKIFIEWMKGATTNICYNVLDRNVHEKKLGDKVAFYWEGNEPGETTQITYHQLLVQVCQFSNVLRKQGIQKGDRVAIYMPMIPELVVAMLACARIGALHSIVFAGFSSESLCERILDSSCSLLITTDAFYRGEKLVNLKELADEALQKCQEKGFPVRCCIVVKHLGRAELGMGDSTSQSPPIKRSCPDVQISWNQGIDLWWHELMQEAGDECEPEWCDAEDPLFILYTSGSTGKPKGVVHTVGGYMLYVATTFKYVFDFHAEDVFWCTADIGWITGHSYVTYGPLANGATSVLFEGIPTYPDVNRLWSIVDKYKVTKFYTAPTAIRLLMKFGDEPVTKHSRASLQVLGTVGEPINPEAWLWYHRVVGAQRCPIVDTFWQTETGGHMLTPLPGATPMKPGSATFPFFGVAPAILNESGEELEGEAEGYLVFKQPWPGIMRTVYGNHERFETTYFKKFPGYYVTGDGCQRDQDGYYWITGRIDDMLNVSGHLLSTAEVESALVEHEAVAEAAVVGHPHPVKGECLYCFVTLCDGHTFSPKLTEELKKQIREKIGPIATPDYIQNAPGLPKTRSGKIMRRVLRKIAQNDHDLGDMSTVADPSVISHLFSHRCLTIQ
Km [3],Km [4],SMILES,IC50 [1],Ki [2]
,,NCC(=O)Nc1ccc(-n2nc(C(F)(F)F)cc2-c2ccc3c(ccc4ccccc43)c2)cc1 [AR-12],< 100000 nM,~2700 nM
900 to 1000 µM,900 to 1000 µM,Nc1ncnc2c1ncn2[C@@H]1O[C@H](COP(=O)(O)OP(=O)(O)OP(=O)(O)O)[C@@H](O)[C@H]1O [ATP],,
